According to PubChem BioAssay (NCI):
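All cell lines were grown in 96-well plates and treated with compound for 48 hours. TGI is the concentration that stops growth completely.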 Where a SMILES comes first, the peptide text is derived from it. [ ]: non-standard residue; d: D form. The star is where a group is joined. ξ: configuration not given here. dThr(3ξ) = CC(O)[C@@H](N)C(=O)O; dNMeL = CN[C@H](CC(C)C)C(=O)O; OBn = c1ccc(CO*)cc1; ξLac = CC(O)C(=O)O

Experiments:
Test in all cases: inhibition of tumour cell growth, NCI panel, 48 h
BT-549 breast = test system: BT-549 breast
CCRF-CEM leukemia = test system: CCRF-CEM leukemia
COLO 205 colon = test system: COLO 205 colon
DU-145 prostate = test system: DU-145 prostate
EKVX NSCLC = test system: EKVX NSCLC
HL-60(TB) leukemia = test system: HL-60(TB) leukemia
HT29 colon = test system: HT29 colon
LOX IMVI melanoma = test system: LOX IMVI melanoma
MALME-3M melanoma = test system: MALME-3M melanoma
NCI-H522 lung = test system: NCI-H522 lung
OVCAR-4 ovarian = test system: OVCAR-4 ovarian
PC-3 prostate = test system: PC-3 prostate
RPMI-8226 leukemia = test system: RPMI-8226 leukemia
RXF 393 renal = test system: RXF 393 renal
SF-295 CNS = test system: SF-295 CNS
SK-MEL-28 melanoma = test system: SK-MEL-28 melanoma
SNB-75 CNS = test system: SNB-75 CNS
SR leukemia = test system: SR leukemia
U251 CNS = test system: U251 CNS
UACC-62 melanoma = test system: UACC-62 melanoma

| Structure (SMILES) | TGI (BT-549 breast) | TGI (CCRF-CEM leukemia) | TGI (COLO 205 colon) | TGI (DU-145 prostate) | TGI (EKVX NSCLC) | TGI (HL-60(TB) leukemia) | TGI (HT29 colon) | TGI (LOX IMVI melanoma) | TGI (MALME-3M melanoma) | TGI (NCI-H522 lung) | TGI (OVCAR-4 ovarian) | TGI (PC-3 prostate) | TGI (RPMI-8226 leukemia) | TGI (RXF 393 renal) | TGI (SF-295 CNS) | TGI (SK-MEL-28 melanoma) | TGI (SNB-75 CNS) | TGI (SR leukemia) | TGI (U251 CNS) | TGI (UACC-62 melanoma) |
| --- | --- | --- | --- | --- | --- | --- | --- | --- | --- | --- | --- | --- | --- | --- | --- | --- | --- | --- | --- | --- |
| CC(=O)CCNc1ccc(-c2cc(-c3ccc(N(C)C)cc3)nc3ccc4ccccc4c23)cc1 | > 100 µM | > 100 µM | > 88.3 µM | > 100 µM | > 100 µM | 84.4 µM | > 100 µM | > 100 µM | > 100 µM | > 100 µM | > 100 µM | > 100 µM | > 100 µM | > 100 µM | > 100 µM | > 100 µM | > 100 µM | > 100 µM | > 100 µM | > 100 µM |
| COC(=O)C1=NN2c3ccccc3C(=O)OCCC2(C)C1 (stereo not given) | > 100 µM | > 100 µM | > 100 µM | > 100 µM | > 100 µM | > 100 µM | > 100 µM | > 100 µM | > 100 µM | > 100 µM | > 100 µM | > 100 µM | > 100 µM | > 100 µM | > 100 µM | > 100 µM | > 100 µM | > 100 µM | > 100 µM | > 100 µM |
| COc1c2c(cc3c1C(O)N1CC[C@]34[C@H]3O[C@H]3[C@H](OC)C[C@@H]14)OCO2 (stereo not given in full) | > 100 µM | 14.2 µM | > 100 µM | > 100 µM | > 100 µM | 3.53 µM | > 100 µM | > 100 µM | > 100 µM | 96.7 µM | > 100 µM | > 100 µM | > 100 µM | > 100 µM | 71.7 µM | > 100 µM | > 100 µM | 88.6 µM | > 100 µM | > 100 µM |
| CC(=O)OC(C)[C@@H](NC(=O)[C@@H](CC(C)C)N(C)C(=O)[C@@H]1CCCN1C(=O)C(C)O)C(=O)OCc1ccccc1 (stereo not given in full) (H-[ξLac]P[dNMeL][dThr(3ξ)](Ac)-OBn) | > 100 µM | > 100 µM | > 100 µM | > 100 µM | > 100 µM | > 100 µM | > 100 µM | > 100 µM | > 100 µM | > 100 µM | > 100 µM | > 100 µM | > 100 µM | > 100 µM | > 100 µM | > 100 µM | > 100 µM | > 100 µM | > 100 µM | > 100 µM |
| CCCCCC(O)[C@H]1C(=O)C[C@@H](O[Si](C)(C)C(C)(C)C)[C@@H]1/C=C/CCOCc1ccccc1 (stereo not given in full) | 21.3 µM | > 100 µM | 41.5 µM | 46.4 µM | 35.2 µM | > 100 µM | 22.5 µM | 43 µM | 28.8 µM | 15 µM | 34.1 µM | 30.9 µM | > 44.8 µM | 31.3 µM | 20.3 µM | 31 µM | 32.1 µM | > 62.9 µM | 29.6 µM | 25.1 µM |
| CC(C)[Si](OC1=C(C(=O)Nc2ccccc2Cl)CCCCC1)(C(C)C)C(C)C | > 100 µM | 12.3 µM | > 100 µM | > 100 µM | > 100 µM | 13.4 µM | > 100 µM | > 100 µM | > 100 µM | > 100 µM | > 100 µM | > 100 µM | > 100 µM | > 100 µM | > 100 µM | > 100 µM | > 100 µM | > 100 µM | > 100 µM | > 100 µM |
| NC1CC(=O)c2c(Cl)sc(Cl)c21 (stereo not given) | 10.7 µM | 2.94 µM | 2.57 µM | 16 µM | 5.07 µM | 6.09 µM | 14.1 µM | 4.81 µM | 4.66 µM | 2.89 µM | 16 µM | 18 µM | 7.76 µM | 2.95 µM | 31.3 µM | 4 µM | 26.1 µM | 1.99 µM | 21.5 µM | 7.78 µM |
| Cc1cn(C2CC(O)C(Cn3cc(Cn4ncc(=O)[nH]c4=O)nn3)O2)c(=O)[nH]c1=O (stereo not given) | > 100 µM | > 100 µM | > 100 µM | > 100 µM | > 100 µM | > 100 µM | > 100 µM | > 100 µM | > 100 µM | > 100 µM | > 100 µM | > 100 µM | > 100 µM | > 100 µM | > 100 µM | > 100 µM | > 100 µM | > 100 µM | > 100 µM | > 100 µM |
